{"source": "the supplement of paper PMC10307832", "experiment_in_all_cases": "relative viability (nuclei count vs DMSO), 5 days (fraction); higher = more cells survive", "key": {"NCI-H1755": {"test_system": "NCI-H1755", "method_in_brief": "(§1)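 Lung cancer cell lines, seeded in 1536-well plates, were treated the following day by pin tool with a single drug or with five library-drug doses (not always all listed) in √10 steps on top of a fixed anchor-drug dose. Cells were fixed and nuclei stained in one step after 5 days, and nuclei were counted. Relative viability is the nuclei count for treated wells divided by that for vehicle wells, reported as medians of duplicate plates.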"}, "A-427": {"test_system": "A-427", "method_in_brief": "as §1"}, "NCI-H23": {"test_system": "NCI-H23", "method_in_brief": "as §1"}, "SW 1573": {"test_system": "SW 1573", "method_in_brief": "as §1"}, "CAL-12T": {"test_system": "CAL-12T", "method_in_brief": "as §1"}, "NCI-H1437": {"test_system": "NCI-H1437", "method_in_brief": "as §1"}, "NCI-H1355": {"test_system": "NCI-H1355", "method_in_brief": "as §1"}, "HARA": {"test_system": "HARA", "method_in_brief": "as §1"}, "NCI-H1915": {"test_system": "NCI-H1915", "method_in_brief": "as §1"}, "HCC-366": {"test_system": "HCC-366", "method_in_brief": "as §1"}, "HOP-62": {"test_system": "HOP-62", "method_in_brief": "as §1"}, "NCI-H727": {"test_system": "NCI-H727", "method_in_brief": "as §1"}}}
{"molecule": "COc1cc(N2CCC(C(N)=O)CC2)ccc1Nc1nc(N)c(Cl)c(Nc2ccccc2S(=O)(=O)C(C)C)n1", "note": "[HG-5-88-01] + CS(=O)(=O)N1CCN(Cc2cc3nc(-c4cccc5[nH]ncc45)nc(N4CCOCC4)c3s2)CC1 [Pictilisib] (partner 1 µM)", "values": [{"measurement": "relative viability", "setting": "NCI-H1755; first compound 1.265 µM", "value": 0.53}, {"measurement": "relative viability", "setting": "NCI-H1755; first compound 4 µM", "value": 0.399}, {"measurement": "relative viability", "setting": "A-427; first compound 0.04 µM", "value": 0.716}, {"measurement": "relative viability", "setting": "A-427; first compound 0.1265 µM", "value": 0.812}, {"measurement": "relative viability", "setting": "A-427; first compound 0.4 µM", "value": 0.706}, {"measurement": "relative viability", "setting": "A-427; first compound 1.265 µM", "value": 0.914}, {"measurement": "relative viability", "setting": "A-427; first compound 4 µM", "value": 0.442}, {"measurement": "relative viability", "setting": "NCI-H23; first compound 0.04 µM", "value": 0.382}, {"measurement": "relative viability", "setting": "NCI-H23; first compound 0.1265 µM", "value": 0.572}, {"measurement": "relative viability", "setting": "NCI-H23; first compound 0.4 µM", "value": 0.469}, {"measurement": "relative viability", "setting": "NCI-H23; first compound 1.265 µM", "value": 0.533}, {"measurement": "relative viability", "setting": "NCI-H23; first compound 4 µM", "value": 0.35}, {"measurement": "relative viability", "setting": "SW 1573; first compound 0.04 µM", "value": 0.422}, {"measurement": "relative viability", "setting": "SW 1573; first compound 0.1265 µM", "value": 0.563}, {"measurement": "relative viability", "setting": "SW 1573; first compound 0.4 µM", "value": 0.445}, {"measurement": "relative viability", "setting": "SW 1573; first compound 1.265 µM", "value": 0.392}, {"measurement": "relative viability", "setting": "SW 1573; first compound 4 µM", "value": 0.489}, {"measurement": "relative viability", "setting": "CAL-12T; first compound 0.04 µM", "value": 0.321}, {"measurement": "relative viability", "setting": "CAL-12T; first compound 0.1265 µM", "value": 0.354}, {"measurement": "relative viability", "setting": "CAL-12T; first compound 0.4 µM", "value": 0.418}, {"measurement": "relative viability", "setting": "CAL-12T; first compound 1.265 µM", "value": 0.296}, {"measurement": "relative viability", "setting": "CAL-12T; first compound 4 µM", "value": 0.227}, {"measurement": "relative viability", "setting": "NCI-H1437; first compound 0.04 µM", "value": 0.519}, {"measurement": "relative viability", "setting": "NCI-H1437; first compound 0.1265 µM", "value": 0.431}, {"measurement": "relative viability", "setting": "NCI-H1437; first compound 0.4 µM", "value": 0.436}, {"measurement": "relative viability", "setting": "NCI-H1437; first compound 1.265 µM", "value": 0.416}, {"measurement": "relative viability", "setting": "NCI-H1437; first compound 4 µM", "value": 0.264}, {"measurement": "relative viability", "setting": "NCI-H1355; first compound 0.04 µM", "value": 0.253}, {"measurement": "relative viability", "setting": "NCI-H1355; first compound 0.1265 µM", "value": 0.462}, {"measurement": "relative viability", "setting": "NCI-H1355; first compound 0.4 µM", "value": 0.412}, {"measurement": "relative viability", "setting": "NCI-H1355; first compound 1.265 µM", "value": 0.414}, {"measurement": "relative viability", "setting": "NCI-H1355; first compound 4 µM", "value": 0.299}, {"measurement": "relative viability", "setting": "HARA; first compound 0.04 µM", "value": 0.438}, {"measurement": "relative viability", "setting": "HARA; first compound 0.1265 µM", "value": 0.358}, {"measurement": "relative viability", "setting": "HARA; first compound 0.4 µM", "value": 0.414}, {"measurement": "relative viability", "setting": "HARA; first compound 1.265 µM", "value": 0.411}, {"measurement": "relative viability", "setting": "HARA; first compound 4 µM", "value": 0.301}, {"measurement": "relative viability", "setting": "NCI-H1915; first compound 0.04 µM", "value": 0.92}, {"measurement": "relative viability", "setting": "NCI-H1915; first compound 0.1265 µM", "value": 0.973}, {"measurement": "relative viability", "setting": "NCI-H1915; first compound 0.4 µM", "value": 0.95}, {"measurement": "relative viability", "setting": "NCI-H1915; first compound 1.265 µM", "value": 1.13}, {"measurement": "relative viability", "setting": "NCI-H1915; first compound 4 µM", "value": 0.806}, {"measurement": "relative viability", "setting": "HCC-366; first compound 0.04 µM", "value": 0.101}, {"measurement": "relative viability", "setting": "HCC-366; first compound 0.1265 µM", "value": 0.16}, {"measurement": "relative viability", "setting": "HCC-366; first compound 0.4 µM", "value": 0.0782}, {"measurement": "relative viability", "setting": "HCC-366; first compound 1.265 µM", "value": 0.157}, {"measurement": "relative viability", "setting": "HCC-366; first compound 4 µM", "value": 0.212}, {"measurement": "relative viability", "setting": "HOP-62; first compound 0.04 µM", "value": 0.493}, {"measurement": "relative viability", "setting": "HOP-62; first compound 0.1265 µM", "value": 0.765}, {"measurement": "relative viability", "setting": "HOP-62; first compound 0.4 µM", "value": 0.827}, {"measurement": "relative viability", "setting": "HOP-62; first compound 1.265 µM", "value": 0.892}, {"measurement": "relative viability", "setting": "HOP-62; first compound 4 µM", "value": 0.936}, {"measurement": "relative viability", "setting": "NCI-H727; first compound 0.04 µM", "value": 0.486}, {"measurement": "relative viability", "setting": "NCI-H727; first compound 0.1265 µM", "value": 0.448}, {"measurement": "relative viability", "setting": "NCI-H727; first compound 0.4 µM", "value": 0.24}, {"measurement": "relative viability", "setting": "NCI-H727; first compound 1.265 µM", "value": 0.261}, {"measurement": "relative viability", "setting": "NCI-H727; first compound 4 µM", "value": 0.249}]}
